Reference: ChEMBL document CHEMBL3734705, “Synthesis and in vitro cytotoxicity of novel C-12 substituted-14-deoxy-andrographolide derivatives as potent anti-cancer agents” (2015)

Legend:
[1] = Cytotoxicity against human HOP92 cells assessed as growth level at 10 uM after 48 hrs by SRB assay; type: functional, HOP-92
EKVX [2] = assay: Cytotoxicity against human EKVX cells assessed as growth level at 10 uM after 48 hrs by SRB assay; type: functional
NCI-H322M = assay: Cytotoxicity against human NCI-H322M cells assessed as growth level at 10 uM after 48 hrs by SRB assay; type: functional
SR [3] = assay: Cytotoxicity against human SR cells assessed as growth level at 10 uM after 48 hrs by SRB assay; type: functional
[4] = Cytotoxicity against human HL-60(TB) cells assessed as growth inhibition at 10 uM after 48 hrs by SRB assay; type: functional; details: HL-60, 48 h, read-out: GI
[5] = Cytotoxicity against human DU145 cells assessed as growth inhibition at 10 uM after 48 hrs by SRB assay; type: functional; details: DU-145, 48 h, read-out: GI
[6] = Cytotoxicity against human HOP92 cells assessed as growth inhibition at 10 uM after 48 hrs by SRB assay; type: functional; details: HOP-92, 48 h, read-out: GI
[7] = Cytotoxicity against human HOP62 cells assessed as growth level at 10 uM after 48 hrs by SRB assay; type: functional, HOP-62
[8] = Cytotoxicity against human SF268 cells assessed as growth inhibition at 10 uM after 48 hrs by SRB assay; type: functional; details: SF-268, 48 h, read-out: GI
SN12C = assay: Cytotoxicity against human SN12C cells assessed as growth inhibition at 10 uM after 48 hrs by SRB assay; type: functional; details: read-out: GI
HT-29 [9] = assay: Cytotoxicity against human HT-29 cells assessed as growth level at 10 uM after 48 hrs by SRB assay; type: functional
[10] = Cytotoxicity against human HOP62 cells assessed as growth inhibition at 10 uM after 48 hrs by SRB assay; type: functional; details: HOP-62, 48 h, read-out: GI
MDA-MB-231 [11] = assay: Cytotoxicity against human MDA-MB-231 cells assessed as growth inhibition at 10 uM after 48 hrs by SRB assay; type: functional; details: MDA-MB-231, 48 h, read-out: GI
[12] = Cytotoxicity against human UO31 cells assessed as growth inhibition at 10 uM after 48 hrs by SRB assay; type: functional; details: UO-31, 48 h, read-out: GI
KM12 = assay: Cytotoxicity against human KM12 cells assessed as growth level at 10 uM after 48 hrs by SRB assay; type: functional
[13] = Cytotoxicity against human SNB19 cells assessed as growth level at 10 uM after 48 hrs by SRB assay; type: functional, SNB-19
[14] = Cytotoxicity against human Hs578T cells assessed as growth level at 10 uM after 48 hrs by SRB assay; type: functional, Hs-578T
[15] = Cytotoxicity against human OVCAR4 cells assessed as growth inhibition at 10 uM after 48 hrs by SRB assay; type: functional; details: OVCAR-4, 48 h, read-out: GI
[16] = Cytotoxicity against human Hs578T cells assessed as growth inhibition at 10 uM after 48 hrs by SRB assay; type: functional; details: Hs-578T, read-out: GI
MDA-MB-231 [17] = assay: Cytotoxicity against human MDA-MB-231 cells assessed as growth level at 10 uM after 48 hrs by SRB assay; type: functional
[18] = Cytotoxicity against human MOLT4 cells assessed as growth level at 10 uM after 48 hrs by SRB assay; type: functional, MOLT-4
[19] = Cytotoxicity against human HCC2998 cells assessed as growth level at 10 uM after 48 hrs by SRB assay; type: functional, HCC 2998
[20] = Cytotoxicity against human NCI-ADR-RES cells assessed as growth inhibition at 10 uM after 48 hrs by SRB assay; type: functional; details: read-out: GI
ACHN = assay: Cytotoxicity against human ACHN cells assessed as growth level at 10 uM after 48 hrs by SRB assay; type: functional
NCI-H460 = assay: Cytotoxicity against human NCI-H460 cells assessed as growth inhibition at 10 uM after 48 hrs by SRB assay; type: functional; details: NCI-H460, 48 h, read-out: GI
[21] = Cytotoxicity against human Caki1 cells assessed as growth inhibition at 10 uM after 48 hrs by SRB assay; type: functional; details: CAKI-1, 48 h, read-out: GI
A549 [22] = assay: Cytotoxicity against human A549 cells assessed as growth inhibition at 10 uM after 48 hrs by SRB assay; type: functional; details: A549, 48 h, read-out: GI
EKVX [23] = assay: Cytotoxicity against human EKVX cells assessed as growth inhibition at 10 uM after 48 hrs by SRB assay; type: functional; details: read-out: GI
T47D [24] = assay: Cytotoxicity against human T47D cells assessed as growth inhibition at 10 uM after 48 hrs by SRB assay; type: functional; details: read-out: GI
[25] = Cytotoxicity against human SNB75 cells assessed as growth inhibition at 10 uM after 48 hrs by SRB assay; type: functional; details: SNB-75, 48 h, read-out: GI
[26] = Cytotoxicity against human OVCAR3 cells assessed as growth inhibition at 10 uM after 48 hrs by SRB assay; type: functional; details: OVCAR-3, 48 h, read-out: GI
NCI-H23 = assay: Cytotoxicity against human NCI-H23 cells assessed as growth inhibition at 10 uM after 48 hrs by SRB assay; type: functional; details: NCI-H23, 48 h, read-out: GI
[27] = Cytotoxicity against human Caki1 cells assessed as growth level at 10 uM after 48 hrs by SRB assay; type: functional, CAKI-1
SR [28] = assay: Cytotoxicity against human SR cells assessed as growth inhibition at 10 uM after 48 hrs by SRB assay; type: functional; details: read-out: GI
HT-29 [29] = assay: Cytotoxicity against human HT-29 cells assessed as growth inhibition at 10 uM after 48 hrs by SRB assay; type: functional; details: HT-29, 48 h, read-out: GI
[30] = Cytotoxicity against human PC3 cells assessed as growth level at 10 uM after 48 hrs by SRB assay; type: functional, PC-3
[31] = Cytotoxicity against human UO31 cells assessed as growth level at 10 uM after 48 hrs by SRB assay; type: functional, UO-31
T47D [32] = assay: Cytotoxicity against human T47D cells assessed as growth level at 10 uM after 48 hrs by SRB assay; type: functional
A549 [33] = assay: Cytotoxicity against human A549 cells assessed as growth level at 10 uM after 48 hrs by SRB assay; type: functional
[34] = Cytotoxicity against human OVCAR8 cells assessed as growth level at 10 uM after 48 hrs by SRB assay; type: functional, OVCAR-8
[35] = Cytotoxicity against human SKOV3 cells assessed as growth inhibition at 10 uM after 48 hrs by SRB assay; type: functional; details: SK-OV-3, 48 h, read-out: GI
[36] = Cytotoxicity against human COLO205 cells assessed as growth level at 10 uM after 48 hrs by SRB assay; type: functional, COLO 205
[37] = Cytotoxicity against human SF539 cells assessed as growth inhibition at 10 uM after 48 hrs by SRB assay; type: functional; details: SF-539, 48 h, read-out: GI
SK-MEL-5 [38] = assay: Cytotoxicity against human SK-MEL-5 cells assessed as growth level at 10 uM after 48 hrs by SRB assay; type: functional
SK-MEL-5 [39] = assay: Cytotoxicity against human SK-MEL-5 cells assessed as growth inhibition at 10 uM after 48 hrs by SRB assay; type: functional; details: SK-MEL-5, 48 h, read-out: GI

Compound: C=C1CC[C@@H]2[C@](C)(COC(C)=O)[C@H](OC(C)=O)CC[C@@]2(C)[C@@H]1CC(NCc1cccc(Cl)c1)C1=CCOC1=O (mixture of isomers)
- Activity [1]: 66.34%
- Activity (EKVX [2]): 77.89%
- Activity (NCI-H322M): 75.37%
- Activity (SR [3]): 11.54%
- inhibition of growth at 10 µM [4]: 78.4%
- inhibition of growth at 10 µM [5]: 18.1%
- inhibition of growth at 10 µM [6]: 33.7%
- Activity [7]: 56%
- inhibition of growth at 10 µM [8]: 46.7%
- inhibition of growth at 10 µM (SN12C): 37.9%
- Activity (HT-29 [9]): 25.54%
- inhibition of growth at 10 µM [10]: 44%
- inhibition of growth at 10 µM (MDA-MB-231 [11]): 35%
- inhibition of growth at 10 µM [12]: 53.1%
- Activity (KM12): 46.76%
- Activity [13]: 55.56%
- Activity [14]: 94.35%
- inhibition of growth at 10 µM [15]: 49.6%
- inhibition of growth at 10 µM [16]: 5.65%
- Activity (MDA-MB-231 [17]): 65%
- Activity [18]: 21.89%
- Activity [19]: 84.55%
- inhibition of growth at 10 µM [20]: 39.7%
- Activity (ACHN): 41.58%
- inhibition of growth at 10 µM (NCI-H460): 65.2%
- inhibition of growth at 10 µM [21]: 51.7%
- inhibition of growth at 10 µM (A549 [22]): 45.8%
- inhibition of growth at 10 µM (EKVX [23]): 22.1%
- inhibition of growth at 10 µM (T47D [24]): 49.3%
- inhibition of growth at 10 µM [25]: 14.1%
- inhibition of growth at 10 µM [26]: 52.6%
- inhibition of growth at 10 µM (NCI-H23): 47.3%
- Activity [27]: 48.33%
- inhibition of growth at 10 µM (SR [28]): 88.5%
- inhibition of growth at 10 µM (HT-29 [29]): 74.5%
- Activity [30]: 30.08%
- Activity [31]: 46.94%
- Activity (T47D [32]): 50.73%
- Activity (A549 [33]): 54.21%
- Activity [34]: 42.73%
- inhibition of growth at 10 µM [35]: 26.9%
- Activity [36]: 36.77%
- inhibition of growth at 10 µM [37]: 25.9%

Compound: C=C1CC[C@@H]2[C@](C)(COC(C)=O)[C@H](OC(C)=O)CC[C@@]2(C)[C@@H]1CC(NCc1ccc(F)cc1)C1=CCOC1=O (mixture of isomers)
- Activity [1]: 18.82%
- Activity (EKVX [2]): 50.01%
- Activity (NCI-H322M): 72.54%
- Activity (SR [3]): 7.69%
- inhibition of growth at 10 µM [4]: 9.52%
- inhibition of growth at 10 µM [5]: 30.2%
- inhibition of growth at 10 µM [6]: 81.2%
- Activity [7]: 78.73%
- inhibition of growth at 10 µM [8]: 37.4%
- inhibition of growth at 10 µM (SN12C): 53.8%
- Activity (HT-29 [9]): 21.32%
- inhibition of growth at 10 µM [10]: 21.2%
- inhibition of growth at 10 µM (MDA-MB-231 [11]): 39.1%
- inhibition of growth at 10 µM [12]: 68.7%
- Activity (SK-MEL-5 [38]): 11.81%
- Activity (KM12): 46.48%
- Activity [14]: 72.47%
- inhibition of growth at 10 µM [15]: 69.1%
- inhibition of growth at 10 µM [16]: 27.5%
- Activity (MDA-MB-231 [17]): 60.86%
- Activity [18]: -0.37%
- Activity [19]: 89.3%
- inhibition of growth at 10 µM [20]: 71.8%
- Activity (ACHN): 50.93%
- inhibition of growth at 10 µM (NCI-H460): 44.8%
- inhibition of growth at 10 µM [21]: 54%
- inhibition of growth at 10 µM (A549 [22]): 42.1%
- inhibition of growth at 10 µM (EKVX [23]): 50%
- inhibition of growth at 10 µM (T47D [24]): 73.4%
- inhibition of growth at 10 µM (SK-MEL-5 [39]): 88.2%
- inhibition of growth at 10 µM [25]: 41.9%
- inhibition of growth at 10 µM [26]: 76.3%
- inhibition of growth at 10 µM (NCI-H23): 42.1%
- Activity [27]: 45.98%
- inhibition of growth at 10 µM (SR [28]): 92.3%
- inhibition of growth at 10 µM (HT-29 [29]): 78.7%
- Activity [30]: 20.82%
- Activity [31]: 31.26%
- Activity (T47D [32]): 26.6%
- Activity (A549 [33]): 57.9%
- Activity [34]: 18.62%
- inhibition of growth at 10 µM [35]: 5.68%
- Activity [36]: 42.15%
- inhibition of growth at 10 µM [37]: 35.5%
